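Growth conditions: 96-well plates. Treatment: test compound, 48 hours, 5 concentrations. Analysis: linear interpolation between bracketing concentrations; unreached endpoints set to highest concentration. At the GI50, growth is halved.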 Activity calls are given as the source filed them. No stated cut-off is given here; in the data, active = GI50 up to about 1.1 µM and inactive = higher.
Tests used:
Test in all cases: NCI tumour cell line growth inhibition, 48 h
OVCAR-5 = tested on: OVCAR-5
UACC-62 = tested on: UACC-62
SNB-19 = tested on: SNB-19
HOP-92 = tested on: HOP-92
RXF 393 = tested on: RXF 393
RPMI-8226 = tested on: RPMI-8226
SK-OV-3 = tested on: SK-OV-3
SW-620 = tested on: SW-620
SNB-75 = tested on: SNB-75
HOP-62 = tested on: HOP-62
IGROV-1 = tested on: IGROV-1
SN12C = tested on: SN12C
MOLT-4 = tested on: MOLT-4
TK-10 = tested on: TK-10
K562 = tested on: K562
COLO 205 = tested on: COLO 205
U-251 = tested on: U-251
A549 = tested on: A549

Measured: GI50

COc1ccc(-c2cc(O)c3cc(Cl)ccc3n2)cc1
inactive: OVCAR-5 > 100 µM | UACC-62 > 100 µM | SNB-19 > 100 µM | HOP-92 > 100 µM | RXF 393 > 100 µM | RPMI-8226 > 100 µM | SK-OV-3 > 100 µM | SW-620 > 100 µM | SNB-75 > 100 µM | HOP-62 > 100 µM | IGROV-1 > 100 µM | SN12C > 100 µM | MOLT-4 > 100 µM | TK-10 > 100 µM | K562 > 100 µM | COLO 205 > 100 µM

COC(=O)C1=C(C[S+]([O-])c2ccccc2[N+](=O)[O-])ON(C)C1c1ccccc1 (centres undefined)
inactive: OVCAR-5 > 100 µM | UACC-62 28.8 µM | SNB-19 > 100 µM | RXF 393 25.4 µM | U-251 34.4 µM | RPMI-8226 34 µM | SK-OV-3 > 100 µM | SW-620 25.4 µM | SNB-75 24.8 µM | HOP-62 > 100 µM | IGROV-1 > 100 µM | SN12C 19 µM | MOLT-4 31 µM | A549 47.2 µM | TK-10 35.7 µM | K562 22.4 µM | COLO 205 43.7 µM

O=C(CCc1nnc2s/c(=C\c3ccccc3Cl)c(=O)n12)Nc1cc(Cl)ccc1Cl
inactive: OVCAR-5 > 100 µM | UACC-62 > 100 µM | SNB-19 > 100 µM | HOP-92 > 100 µM | RXF 393 > 100 µM | U-251 > 100 µM | RPMI-8226 > 100 µM | SK-OV-3 > 100 µM | SW-620 > 100 µM | HOP-62 > 100 µM | IGROV-1 > 100 µM | SN12C > 100 µM | MOLT-4 > 100 µM | A549 > 100 µM | TK-10 > 100 µM | K562 > 100 µM

O=[N+]([O-])c1nccn1COCCF
inactive: OVCAR-5 > 100 µM | UACC-62 > 100 µM | SNB-19 > 100 µM | HOP-92 > 100 µM | U-251 > 100 µM | RPMI-8226 > 100 µM | SK-OV-3 > 100 µM | SW-620 > 100 µM | SNB-75 64.6 µM | HOP-62 > 100 µM | IGROV-1 > 100 µM | SN12C > 100 µM | MOLT-4 > 100 µM | A549 > 100 µM | TK-10 > 100 µM | K562 > 100 µM | COLO 205 > 100 µM

[O-]/N=[N+](/[O-])C1CCCCC1=[N+]1CCOCC1 (centres undefined)
inactive: OVCAR-5 > 100 µM | UACC-62 > 100 µM | SNB-19 > 100 µM | HOP-92 > 100 µM | U-251 > 100 µM | RPMI-8226 > 100 µM | SK-OV-3 > 100 µM | SW-620 > 100 µM | HOP-62 > 100 µM | SN12C > 100 µM | MOLT-4 > 100 µM | A549 > 100 µM | TK-10 > 100 µM | K562 > 100 µM | COLO 205 > 100 µM

CN1c2ccccc2N(C)C23N(C)c4ccccc4N(C)C12N(C)c1ccccc1N3C (centres undefined)
inactive: OVCAR-5 > 100 µM | UACC-62 > 100 µM | SNB-19 > 100 µM | HOP-92 22.9 µM | RXF 393 > 100 µM | U-251 > 100 µM | SW-620 > 100 µM | SNB-75 35.6 µM | HOP-62 87.1 µM | IGROV-1 > 100 µM | SN12C > 100 µM | MOLT-4 > 100 µM | A549 > 100 µM | TK-10 > 100 µM | K562 > 100 µM | COLO 205 > 100 µM

CC(C)OP(=O)(OC(C)C)/C(=N/Nc1ccc([N+](=O)[O-])cc1)NN
inactive: OVCAR-5 > 100 µM | UACC-62 34.4 µM | SNB-19 > 100 µM | HOP-92 65 µM | U-251 > 100 µM | RPMI-8226 88.3 µM | SW-620 > 100 µM | SNB-75 83.2 µM | HOP-62 > 100 µM | SN12C > 100 µM | MOLT-4 61.9 µM | A549 75.3 µM | TK-10 > 100 µM | K562 65.9 µM | COLO 205 > 100 µM

O=C1c2ccccc2C(=O)c2nc3c(O)cccc3cc21
inactive: OVCAR-5 89.7 µM | UACC-62 37.3 µM | SNB-19 14.7 µM | RXF 393 > 100 µM | U-251 20.8 µM | RPMI-8226 6.47 µM | SW-620 3.57 µM | SNB-75 68.1 µM | HOP-62 38.9 µM | IGROV-1 57.8 µM | SN12C 25.4 µM | MOLT-4 3.38 µM | A549 17.8 µM | TK-10 74.5 µM | K562 5.83 µM | COLO 205 23.8 µM

CC1=NOC(=O)/C1=C/c1ccc([N+](=O)[O-])cc1
inactive: OVCAR-5 > 100 µM | UACC-62 > 100 µM | SNB-19 > 100 µM | HOP-92 > 100 µM | RXF 393 > 100 µM | U-251 > 100 µM | SK-OV-3 > 100 µM | SW-620 59 µM | SNB-75 > 100 µM | HOP-62 > 100 µM | IGROV-1 > 100 µM | SN12C > 100 µM | MOLT-4 > 100 µM | A549 > 100 µM | TK-10 > 100 µM | K562 > 100 µM | COLO 205 > 100 µM

CC(C)(C)/N=C/N1C=Cc2nc3ccccc3cc2C1
inactive: OVCAR-5 > 100 µM | UACC-62 > 100 µM | SNB-19 > 100 µM | HOP-92 > 100 µM | RXF 393 > 100 µM | U-251 > 100 µM | SK-OV-3 > 100 µM | SW-620 19.5 µM | SNB-75 > 100 µM | HOP-62 > 100 µM | IGROV-1 > 100 µM | SN12C > 100 µM | MOLT-4 > 100 µM | A549 > 100 µM | TK-10 > 100 µM | K562 > 100 µM | COLO 205 36.9 µM

CN1CCc2cc(O)c3cc2C1Cc1ccc(cc1)Oc1cc(ccc1O)CC1c2c(cc4c(c2O3)OCO4)CCN1C (centres undefined)
inactive: OVCAR-5 27 µM | UACC-62 24.2 µM | SNB-19 44.6 µM | RXF 393 11.2 µM | U-251 30.1 µM | SNB-75 13.4 µM | IGROV-1 25.6 µM | SN12C 32.9 µM | MOLT-4 24.3 µM | A549 45.7 µM | TK-10 24.2 µM | K562 17.2 µM | COLO 205 13.5 µM

Cc1ccc(NCC2(/N=C/c3ccccc3)OC(CO)C(O)C2O)cc1 (centres undefined)
inactive: OVCAR-5 > 100 µM | UACC-62 54.1 µM | SNB-19 > 100 µM | HOP-92 64 µM | U-251 24.2 µM | RPMI-8226 35 µM | SW-620 36.7 µM | SNB-75 26.2 µM | HOP-62 12.4 µM | IGROV-1 > 100 µM | MOLT-4 40.1 µM | A549 44 µM | TK-10 > 100 µM | K562 27.9 µM | COLO 205 42.2 µM

O=C(CC1(O)C(=O)Nc2ccc(Br)cc21)c1cccc([N+](=O)[O-])c1 (centres undefined)
inactive: OVCAR-5 > 100 µM | SNB-19 61.5 µM | HOP-92 20.8 µM | RXF 393 23.8 µM | U-251 > 100 µM | RPMI-8226 18.3 µM | SK-OV-3 > 100 µM | SW-620 37.8 µM | SNB-75 26.7 µM | HOP-62 49.5 µM | SN12C > 100 µM | MOLT-4 24.9 µM | A549 > 100 µM | TK-10 > 100 µM | K562 20.6 µM | COLO 205 > 100 µM

O=C1NC2CCC(C2)C1c1ccccc1 (centres undefined)
inactive: OVCAR-5 > 100 µM | UACC-62 > 100 µM | SNB-19 > 100 µM | RXF 393 > 100 µM | U-251 > 100 µM | RPMI-8226 > 100 µM | SK-OV-3 > 100 µM | SW-620 > 100 µM | SNB-75 > 100 µM | IGROV-1 > 100 µM | SN12C > 100 µM | MOLT-4 > 100 µM | A549 > 100 µM | TK-10 > 100 µM | K562 > 100 µM | COLO 205 > 100 µM

COC(=O)c1cc(CC(C)C)c2c(c1)[nH]c1ccccc12
inactive: OVCAR-5 > 100 µM | UACC-62 96.8 µM | SNB-19 > 100 µM | HOP-92 43.5 µM | U-251 > 100 µM | SK-OV-3 > 100 µM | SW-620 47.2 µM | SNB-75 18.2 µM | IGROV-1 > 100 µM | SN12C > 100 µM | MOLT-4 34 µM | A549 > 100 µM | TK-10 > 100 µM | K562 15.9 µM | COLO 205 > 100 µM

O=C(c1cc2ccccc2[nH]1)C(O)(c1cc2ccccc2[nH]1)c1cc2ccccc2[nH]1
inactive: OVCAR-5 > 246 µM | UACC-62 > 246 µM | SNB-19 > 246 µM | HOP-92 > 246 µM | RXF 393 > 246 µM | U-251 > 246 µM | RPMI-8226 > 246 µM | SK-OV-3 > 246 µM | SW-620 > 246 µM | HOP-62 > 246 µM | IGROV-1 > 246 µM | SN12C > 246 µM | MOLT-4 > 246 µM | A549 > 246 µM | TK-10 > 246 µM | K562 > 246 µM | COLO 205 > 246 µM

CNc1ccc2ncccc2c1[N+](=O)[O-]
inactive: OVCAR-5 > 100 µM | UACC-62 > 100 µM | SNB-19 > 100 µM | HOP-92 > 100 µM | RXF 393 > 100 µM | RPMI-8226 > 100 µM | SW-620 > 100 µM | SNB-75 > 100 µM | HOP-62 > 100 µM | IGROV-1 > 100 µM | SN12C > 100 µM | MOLT-4 > 100 µM | A549 > 100 µM | TK-10 > 100 µM | K562 > 100 µM
